From US20260356830A1, “COMPOUNDS FOR MODULATING RET PROTEIN” (Bristol-Myers Squibb Company, priority 2022, published 2026) come the findings set out here.

Each structure is given as a SMILES string.

The test has as its target T1, CCDC6-RET (Homo sapiens, UniProt P07949+Q16204+Q96SW2).
T1 construct: CCDC6 (natural N-terminal fusion partner, UniProt Q16204); endogenous in cells; host or cells: TPC-1 (parental, papillary thyroid carcinoma)
Put plainly: Cellular RET degradation, AlphaLISA, TPC-1 cell line. The class given is cell-based. Conditions: for Dmax: TPC1, human, 24 h, read-out: Cell Density TPC-1/CCDC6-RET Ymax %; for DC50: read-out: Cell Density TPC-1/CCDC6-RET DC50, half-maximal degradation concentration, TPC-1 (CCDC6-RET), 24 hrs. The protocol: Cellular RET degradation compound potency was determined using the bead-based luminescent amplification assay-AlphaLISA Surefire Ultra Detection Kit (Perkin-Elmer). The CCDC6-RET fusion expressing papillary thyroid carcinoma (TPC-1) cell line was selected for screening of potential degraders: Parental (TPC-1/CCDC6-RET). Cells were plated in 384 well culture plates (Greiner Bio-One) at 10,000 cells/well in 50 ul/well DMEM (Fisher Scientific) with 2% FBS serum (Gibco). […] Low normalization wells were media only and high normalization wells were cells treated with DMSO only. Treated cell plates were placed in an incubator at 37 °C and 5% CO2 for 24 hrs. At 24 hrs, cell media was removed by a FELIX automated liquid hander (Analytik Jena) and 25 ul of cell lysis buffer (provided in AlphaLisa kit) was added to each well. […] cell lysate were transferred into a 384-well microplate (Perkin Elmer) before addition of 2.5 ul AlphaLISA Acceptor Bead mix. The plates were sealed and kept at room temperature for 1 hr before addition of donor bead mixture. Donor bead addition was performed in the dark and incubated for >1 hr before AlphaLISA luminescence was measured on an Envision plate reader with an Alphascreen aperture at RT (excitation 680 nm, emission 615 nm). RET protein abundance (and therefore degradation) directly corresponds to luminescence intensity.
Intensities were normalized relative to the average values from 16 wells containing media alone (blank-low) and 16 wells containing cells +DMSO (high). % Degradation for each well was determined using the standard equation, where
DC50 (IC50) values for each compound tested are calculated by analyzing plots of % degradation versus compound concentration, and fitting to the standard 4-parameter logistic curve where,
DC50 values are calculated according to the relationship,
Compound replicates were performed in independent assays. Maximum degradation (YMax) was defined as the maximal % degradation value from the 4-parameter logistic equation, as previously described.
In general terms: Alpha assays give light when donor and acceptor beads are brought close together.

T1 sequence (Q16204+P07949 fused): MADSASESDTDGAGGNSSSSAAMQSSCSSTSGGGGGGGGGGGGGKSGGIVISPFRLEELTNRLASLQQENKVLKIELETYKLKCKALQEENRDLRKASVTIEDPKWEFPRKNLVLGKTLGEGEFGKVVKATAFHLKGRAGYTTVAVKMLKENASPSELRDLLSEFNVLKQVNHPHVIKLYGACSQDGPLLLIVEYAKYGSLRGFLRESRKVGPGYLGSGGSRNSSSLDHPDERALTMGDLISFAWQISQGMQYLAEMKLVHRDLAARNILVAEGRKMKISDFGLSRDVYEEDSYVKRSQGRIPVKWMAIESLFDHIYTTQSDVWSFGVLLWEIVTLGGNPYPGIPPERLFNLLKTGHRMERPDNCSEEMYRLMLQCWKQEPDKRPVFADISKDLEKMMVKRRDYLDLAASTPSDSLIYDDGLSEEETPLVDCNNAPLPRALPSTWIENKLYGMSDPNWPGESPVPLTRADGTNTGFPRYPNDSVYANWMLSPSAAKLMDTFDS
T1 sequence (Q96SW2 whole entry, the tested form may be a part): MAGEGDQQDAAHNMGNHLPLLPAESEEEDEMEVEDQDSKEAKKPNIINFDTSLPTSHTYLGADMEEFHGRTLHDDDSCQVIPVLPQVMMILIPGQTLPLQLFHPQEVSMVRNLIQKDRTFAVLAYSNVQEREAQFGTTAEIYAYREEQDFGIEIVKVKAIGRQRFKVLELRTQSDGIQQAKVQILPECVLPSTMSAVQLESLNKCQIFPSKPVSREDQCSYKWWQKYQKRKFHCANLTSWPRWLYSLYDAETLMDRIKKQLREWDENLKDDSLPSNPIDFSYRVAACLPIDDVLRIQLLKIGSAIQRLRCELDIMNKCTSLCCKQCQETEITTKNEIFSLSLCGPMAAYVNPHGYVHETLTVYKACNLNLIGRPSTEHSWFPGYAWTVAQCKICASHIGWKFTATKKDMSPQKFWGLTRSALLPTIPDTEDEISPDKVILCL
T1 sequence (Q16531 whole entry partner, the tested form may be a part): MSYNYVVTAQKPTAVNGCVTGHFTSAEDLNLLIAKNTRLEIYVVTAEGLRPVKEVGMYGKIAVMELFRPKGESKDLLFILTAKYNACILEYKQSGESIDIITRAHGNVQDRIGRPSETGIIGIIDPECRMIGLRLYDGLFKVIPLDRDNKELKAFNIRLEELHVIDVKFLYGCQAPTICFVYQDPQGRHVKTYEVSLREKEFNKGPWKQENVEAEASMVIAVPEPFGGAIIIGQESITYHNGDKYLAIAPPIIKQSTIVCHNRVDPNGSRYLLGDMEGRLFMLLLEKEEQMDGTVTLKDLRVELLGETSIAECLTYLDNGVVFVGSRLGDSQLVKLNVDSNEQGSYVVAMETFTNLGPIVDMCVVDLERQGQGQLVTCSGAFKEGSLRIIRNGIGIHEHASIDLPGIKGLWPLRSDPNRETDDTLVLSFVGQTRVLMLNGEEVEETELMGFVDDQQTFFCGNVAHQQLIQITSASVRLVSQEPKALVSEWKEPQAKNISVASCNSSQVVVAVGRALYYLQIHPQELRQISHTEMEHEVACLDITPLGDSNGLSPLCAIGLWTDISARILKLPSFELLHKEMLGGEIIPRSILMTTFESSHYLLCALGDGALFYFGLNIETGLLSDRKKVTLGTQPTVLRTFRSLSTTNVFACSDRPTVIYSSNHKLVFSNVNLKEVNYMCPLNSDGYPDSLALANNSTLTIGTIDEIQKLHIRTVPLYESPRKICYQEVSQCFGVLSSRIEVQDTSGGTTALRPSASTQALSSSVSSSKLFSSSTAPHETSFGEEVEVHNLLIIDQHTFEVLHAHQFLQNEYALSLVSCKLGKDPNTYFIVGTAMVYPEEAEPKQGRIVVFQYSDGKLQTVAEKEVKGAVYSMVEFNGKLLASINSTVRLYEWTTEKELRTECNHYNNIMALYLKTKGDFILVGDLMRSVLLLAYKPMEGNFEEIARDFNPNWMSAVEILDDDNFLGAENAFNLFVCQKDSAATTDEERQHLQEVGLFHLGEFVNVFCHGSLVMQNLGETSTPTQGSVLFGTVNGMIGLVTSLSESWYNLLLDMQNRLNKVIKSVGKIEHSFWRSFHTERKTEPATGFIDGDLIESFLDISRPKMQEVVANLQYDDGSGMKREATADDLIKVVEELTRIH

`CCOc1cc(-c2ccc(N3CCC(NC(=O)c4cc(F)ccc4F)(C(=O)NCCCCCCN4CCN(c5ccc6c(c5)C(=O)N(C5CCC(=O)NC5=O)C6)CC4)CC3)nc2)c2c(C#N)cnn2c1` (centres unmarked) [Example 160, 1-(5-{3-cyano-6-ethoxypyrazolo[1,5-a]pyridin-4-yl}pyridin-2-yl)-4-(2,5-difluorobenzamido)-N-(6-{4-[2-(2,6-dioxopiperidin-3-yl)-3-oxo-2,3-dihydro-1H-isoindol-5-yl]piperazin-1-yl}hexyl)piperidine-4-carboxamide]: the Dmax was over 90% and the DC50 lay within 2 to 10 nM.

On to `CCOc1cc(-c2ccc(N3CCC(CN4CCC5(CC4)CCN(C(=O)CCN4CCN(c6ccc7c(c6)CN(C6CCC(=O)NC6=O)C7=O)CC4)CC5)(NC(=O)c4cc(F)ccc4F)CC3)nc2)c2c(C#N)cnn2c1` (centres unmarked) [Example 87, N-[1-(5-{3-cyano-6-ethoxypyrazolo[1,5-a]pyridin-4-yl}pyridin-2-yl)-4-{[9-(3-{4-[2-(2,6-dioxopiperidin-3-yl)-1-oxo-2,3-dihydro-1H-isoindol-5-yl]piperazin-1-yl}propanoyl)-3,9-diazaspiro[5.5]undecan-3-yl]methyl}piperidin-4-yl]-2,5-difluorobenzamide], for which the Dmax is over 90% and the DC50 lay within 2 to 10 nM.

As to `CCOc1cc(-c2ccc(N3CCC(CN4CCN(C(=O)C5CC6(C5)CC(C(=O)N5CCN(c7ccc8c(c7)C(=O)N(C7CCC(=O)NC7=O)C8)CC5)C6)CC4)(NC(=O)c4cc(F)ccc4F)CC3)nc2)c2c(C#N)cnn2c1` (centres unmarked) [Example 86, N-[1-(5-{3-cyano-6-ethoxypyrazolo[1,5-a]pyridin-4-yl}pyridin-2-yl)-4-{[4-(6-{4-[2-(2,6-dioxopiperidin-3-yl)-3-oxo-2,3-dihydro-1H-isoindol-5-yl]piperazine-1-carbonyl}spiro[3.3]heptane-2-carbonyl)piperazin-1-yl]methyl}piperidin-4-yl]-2,5-difluorobenzamide], the Dmax is over 90% and the DC50 was under 2 nM.

As for `CCOc1cc(-c2ccc(N3CCC(CN4CCN(C(=O)C5CC6(C5)CC(C(=O)N5CCN(c7ccc8c(c7)CN(C7CCC(=O)NC7=O)C8=O)CC5)C6)CC4)(NC(=O)c4cc(F)ccc4F)CC3)nc2)c2c(C#N)cnn2c1` (centres unmarked) [Example 85, N-[1-(5-{3-cyano-6-ethoxypyrazolo[1,5-a]pyridin-4-yl}pyridin-2-yl)-4-{[4-(6-{4-[2-(2,6-dioxopiperidin-3-yl)-1-oxo-2,3-dihydro-1H-isoindol-5-yl]piperazine-1-carbonyl}spiro[3.3]heptane-2-carbonyl)piperazin-1-yl]methyl}piperidin-4-yl]-2,5-difluorobenzamide], the Dmax was in the range of 60 to 90% and the DC50 was under 2 nM.

`CCOc1cc(-c2ccc(N3CCC(CN4CCC5(CCC(CC(=O)N6CCC(c7ccc8c(c7)CN(C7CCC(=O)NC7=O)C8=O)CC6)CC5)CC4)(NC(=O)c4cc(F)ccc4F)CC3)nc2)c2c(C#N)cnn2c1` (centres unmarked) [Example 122, N-[1-(5-{3-cyano-6-ethoxypyrazolo[1,5-a]pyridin-4-yl}pyridin-2-yl)-4-{[9-(2-{4-[2-(2,6-dioxopiperidin-3-yl)-1-oxo-2,3-dihydro-1H-isoindol-5-yl]piperidin-1-yl}-2-oxoethyl)-3-azaspiro[5.5]undecan-3-yl]methyl}piperidin-4-yl]-2,5-difluorobenzamide]: the Dmax is over 90% and the DC50 lay in the range of 2 to 10 nM.

`CCOc1cc(-c2ccc(N3CCC(CN4CCN(C(=O)CN5CCC(c6ccc7c(N8CCC(=O)NC8=O)nn(C)c7c6)CC5)CC4)(NC(=O)c4cc(F)ccc4F)CC3)nc2)c2c(C#N)cnn2c1` [Example 44, N-(1-(5-(3-cyano-6-ethoxypyrazolo[1,5-a]pyridin-4-yl)pyridin-2-yl)-4-((4-(2-(4-(3-(2,4-dioxotetrahydropyrimidin-1(2H)-yl)-1-methyl-1H-indazol-6-yl)piperidin-1-yl)acetyl)piperazin-1-yl)methyl)piperidin-4-yl)-2,5-difluorobenzamide]: the Dmax was 60 to 90% and the DC50 is under 2 nM.

Regarding `CCOc1cc(-c2ccc(N3CCC(NC(=O)c4cc(F)ccc4F)(C(=O)NCCCCCCN4CCC(c5ccc6c(c5)CN(C5CCC(=O)NC5=O)C6=O)CC4)CC3)nc2)c2c(C#N)cnn2c1` (centres unmarked) [Example 157, 1-(5-{3-cyano-6-ethoxypyrazolo[1,5-a]pyridin-4-yl}pyridin-2-yl)-4-(2,5-difluorobenzamido)-N-(6-{4-[2-(2,6-dioxopiperidin-3-yl)-1-oxo-2,3-dihydro-1H-isoindol-5-yl]piperidin-1-yl}hexyl)piperidine-4-carboxamide], the Dmax is over 90% and the DC50 lay within 2 to 10 nM.

As to `CCOc1cc(-c2ccc(N3CCC(CN4CCC(N5CC(N6CCC(c7ccc8c(c7)C(=O)N(C7CCC(=O)NC7=O)C8)CC6)C5)CC4)(NC(=O)c4cc(F)ccc4F)CC3)nc2)c2c(C#N)cnn2c1` (centres unmarked) [Example 71, N-(1-(5-(3-cyano-6-ethoxypyrazolo[1,5-a]pyridin-4-yl)pyridin-2-yl)-4-((4-(3-(4-(2-(2,6-dioxopiperidin-3-yl)-3-oxoisoindolin-5-yl)piperidin-1-yl)azetidin-1-yl)piperidin-1-yl)methyl)piperidin-4-yl)-2,5-difluorobenzamide], the Dmax is over 90% and the DC50 was under 2 nM.

`CCOc1cc(-c2ccc(N3CCC(CN4CC5(C4)CN(C(=O)CCN4CCC(c6ccc7c(c6)CN(C6CCC(=O)NC6=O)C7=O)CC4)C5)(NC(=O)c4cc(F)ccc4F)CC3)nc2)c2c(C#N)cnn2c1` (centres unmarked) [Example 89, N-[1-(5-{3-cyano-6-ethoxypyrazolo[1,5-a]pyridin-4-yl}pyridin-2-yl)-4-{[6-(3-{4-[2-(2,6-dioxopiperidin-3-yl)-1-oxo-2,3-dihydro-1H-isoindol-5-yl]piperidin-1-yl}propanoyl)-2,6-diazaspiro[3.3]heptan-2-yl]methyl}piperidin-4-yl]-2,5-difluorobenzamide]: the Dmax was over 90% and the DC50 lay in the range of 10 to 100 nM.

In the case of `CCOc1cc(-c2ccc(N3CCC(CN4CCN(C(=O)CCCN5CCN(c6ccc7c(c6)CN(C6CCC(=O)NC6=O)C7=O)CC5)CC4)(NC(=O)c4cc(F)ccc4F)CC3)nc2)c2c(C#N)cnn2c1` (centres unmarked) [Example 14, N-(1-(5-(3-cyano-6-ethoxypyrazolo[1,5-a]pyridin-4-yl)pyridin-2-yl)-4-((4-(4-(4-(2-(2,6-dioxopiperidin-3-yl)-1-oxoisoindolin-5-yl)piperazin-1-yl)butanoyl)piperazin-1-yl)methyl)piperidin-4-yl)-2,5-difluorobenzamide], the Dmax lay in the range of 60 to 90% and the DC50 was 2 to 10 nM.

As for `CCOc1cc(-c2ccc(N3CCC(NC(=O)c4cc(F)ccc4F)(C(=O)NCCN4CCN(c5ccc6c(c5)C(=O)N(C5CCC(=O)NC5=O)C6)CC4)CC3)nc2)c2c(C#N)cnn2c1` (centres unmarked) [Example 158, 1-(5-{3-cyano-6-ethoxypyrazolo[1,5-a]pyridin-4-yl}pyridin-2-yl)-4-(2,5-difluorobenzamido)-N-(2-{4-[2-(2,6-dioxopiperidin-3-yl)-3-oxo-2,3-dihydro-1H-isoindol-5-yl]piperazin-1-yl}ethyl)piperidine-4-carboxamide], the Dmax was 60 to 90% and the DC50 was under 2 nM.

Take `CCOc1cc(-c2ccc(N3CCC(CN4CCN(C5CN(C(=O)c6ccc7c(c6)CN(C6CCC(=O)NC6=O)C7=O)C5)CC4)(NC(=O)c4cc(F)ccc4F)CC3)nc2)c2c(C#N)cnn2c1` (centres unmarked) [Example 63, N-[1-(5-{3-cyano-6-ethoxypyrazolo[1,5-a]pyridin-4-yl}pyridin-2-yl)-4-[(4-{1-[2-(2,6-dioxopiperidin-3-yl)-1-oxo-2,3-dihydro-1H-isoindole-5-carbonyl]azetidin-3-yl}piperazin-1-yl)methyl]piperidin-4-yl]-2,5-difluorobenzamide]: the Dmax fell in the range of 60 to 90% and the DC50 is 2 to 10 nM.

Turning to `CCOc1cc(-c2ccc(N3CCC(CN4CCN(C(=O)CCN5CCN(c6ccc7c(c6)CN(C6CCC(=O)NC6=O)C7=O)CC5)CC4)(C(=O)NC(C)C)CC3)nc2)c2c(C#N)cnn2c1` (centres unmarked) [Example 77, 1-(5-(3-Cyano-6-ethoxypyrazolo[1,5-a]pyridin-4-yl)pyridin-2-yl)-4-((4-(3-(4-(2-(2,6-dioxopiperidin-3-yl)-1-oxoisoindolin-5-yl)piperazin-1-yl)propanoyl)piperazin-1-yl)methyl)-N-isopropylpiperidine-4-carboxamide], the Dmax fell in the range of 60 to 90% and the DC50 was under 2 nM.
